Test results taken from patent publication EP4631938A1, “NITROGEN-CONTAINING HETEROCYCLE WITH SEROTONIN RECEPTOR-BINDING ACTIVITY AND CARBOCYCLIC DERIVATIVE” (Shionogi & Co., Ltd, priority 2022, dated 2024).

Key:
[1] = biological target: T1, human recombinant 5-HT2C receptor (Homo sapiens, UniProt P28335); experiment: Test Example 2-2: 5-HT2C receptor binding inhibition test ([3H]-Mesulergine; non-specific ligand Ketanserin); conditions: non-specific binding with 500 µmol/L Ketanserin, 37°C, 2 hours
T1 construct: expressed in transfected cells; host or cells: Jump-In HEK cells (membrane preparation)
T1 sequence (P28335 33-458): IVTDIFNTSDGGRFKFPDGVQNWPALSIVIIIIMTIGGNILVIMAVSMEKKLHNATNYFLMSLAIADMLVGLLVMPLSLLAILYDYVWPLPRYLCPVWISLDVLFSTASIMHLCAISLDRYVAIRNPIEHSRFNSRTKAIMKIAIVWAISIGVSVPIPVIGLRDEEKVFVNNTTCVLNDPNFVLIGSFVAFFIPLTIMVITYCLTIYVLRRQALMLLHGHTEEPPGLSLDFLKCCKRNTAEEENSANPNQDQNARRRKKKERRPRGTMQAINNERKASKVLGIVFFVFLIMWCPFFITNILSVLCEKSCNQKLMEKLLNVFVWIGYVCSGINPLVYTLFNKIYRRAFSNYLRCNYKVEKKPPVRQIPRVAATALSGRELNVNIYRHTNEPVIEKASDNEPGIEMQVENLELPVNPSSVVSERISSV
In short: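 Membranes expressing the receptor were incubated with compound and [3H]-Mesulergine for 2 h at 37 °C, then filtered and counted by scintillation. Non-specific binding was defined with 500 µmol/L Ketanserin. Percent inhibition versus vehicle gave dose-response curves, from which Ki was derived using a Kd from Scatchard saturation analysis.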

[2] = biological target: T2, human ether-a-go-go related gene (hERG) channel (Homo sapiens, UniProt Q12809); experiment: Test Example 3-2: hERG test (FluxORII thallium flux, FLIPR, 4000 cells/well); assay type: cell-based; conditions: CHO cells expressing hERG channel, compound reacted for 10 minutes, 100% inhibition = E-4031 10.3 µmol/L
T2 construct: expressed in transfected cells; host or cells: CHO cells
T2 sequence (Q12809 whole entry): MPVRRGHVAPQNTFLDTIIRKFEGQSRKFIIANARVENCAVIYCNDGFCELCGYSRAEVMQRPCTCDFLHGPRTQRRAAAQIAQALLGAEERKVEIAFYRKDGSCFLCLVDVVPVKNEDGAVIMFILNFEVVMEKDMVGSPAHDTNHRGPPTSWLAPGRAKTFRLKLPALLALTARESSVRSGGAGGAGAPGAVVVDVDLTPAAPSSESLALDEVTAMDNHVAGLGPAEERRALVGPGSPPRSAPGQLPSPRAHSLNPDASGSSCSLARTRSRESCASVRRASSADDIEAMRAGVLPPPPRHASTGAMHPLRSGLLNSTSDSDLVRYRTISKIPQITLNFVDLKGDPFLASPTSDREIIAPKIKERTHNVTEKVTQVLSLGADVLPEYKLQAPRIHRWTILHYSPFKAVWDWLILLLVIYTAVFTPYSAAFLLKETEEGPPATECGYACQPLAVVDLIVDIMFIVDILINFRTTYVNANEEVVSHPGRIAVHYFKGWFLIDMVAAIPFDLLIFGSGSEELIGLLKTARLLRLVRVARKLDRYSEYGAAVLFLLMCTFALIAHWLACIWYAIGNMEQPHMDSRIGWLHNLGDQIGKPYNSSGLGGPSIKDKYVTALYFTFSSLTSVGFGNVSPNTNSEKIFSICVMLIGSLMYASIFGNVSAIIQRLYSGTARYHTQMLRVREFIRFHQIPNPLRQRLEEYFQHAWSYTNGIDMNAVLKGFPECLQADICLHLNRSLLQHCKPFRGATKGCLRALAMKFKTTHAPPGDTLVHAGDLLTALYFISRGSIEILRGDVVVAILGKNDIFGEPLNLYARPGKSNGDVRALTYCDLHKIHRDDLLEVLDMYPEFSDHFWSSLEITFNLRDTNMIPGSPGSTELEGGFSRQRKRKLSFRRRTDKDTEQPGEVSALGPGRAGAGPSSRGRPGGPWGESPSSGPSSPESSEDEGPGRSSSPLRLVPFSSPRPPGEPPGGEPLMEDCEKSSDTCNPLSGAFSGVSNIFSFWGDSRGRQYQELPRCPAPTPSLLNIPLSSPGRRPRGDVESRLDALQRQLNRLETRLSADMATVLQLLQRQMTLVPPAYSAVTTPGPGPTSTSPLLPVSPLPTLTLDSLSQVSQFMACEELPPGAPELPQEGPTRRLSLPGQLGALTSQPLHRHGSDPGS
Experimental: For the purpose of evaluating risk of an electrocardiogram QT interval prolongation of the compound of the present invention, effects of the compound are studied by evaluating the activity of potassium channel using CHO cells expressing human ether-a-go-go related gene (hERG) channel.
Evaluation is performed using a FluxORII Green Potassium Ion Channel Assay kit (Invitrogen: Molecular Probes).
Cells (4000 cells/well/40 µL) are seeded in a 384 assay plate, and are incubated overnight (37°C, 5% CO2). After replacing the medium with a Wash buffer (lxHBSS, 20 mM HEPES) with a microplate washer, a fluorescent indicator is added to the medium and allowed to incubate (37°C, 5% CO2) for 1 hour for incorporation of the fluorescent indicator into cells.
A cell plate is placed on a cell-based kinetic assay system FLIPR (Molecular Devices, LLC.), and the compound is added to the cells so as to have a desired concentration and reacted for 10 minutes. When a mixed solution of potassium and thallium as a stimulator is added thereto, the potassium channel is opened, and thallium that flowed into the cells binds to the fluorescent indicator, so that the intracellular fluorescence signal increases, and the potassium channel current is detected as a fluorescence signal. […] Then, the inhibition rate is calculated from the signal intensity at each concentration. IC50 is calculated from the inhibition rate at each concentration.

Ki [1] [nM] | SMILES | IC50 [2] [nM]
0.822 | Cc1cnn(C)c1-c1cc(Nc2ncc(C(F)(F)F)cc2F)ccc1OCCO [Compound I-008] | 
3.47 | Cn1ncc(F)c1-c1cc(Nc2ncc(C(F)(F)F)cc2F)cnc1OCCO [Compound I-127] | > 52000
 | COCc1nc(C)c(-c2cc(Nc3ncc(OC(F)(F)F)cc3Cl)ncc2OCCO)c(C)n1 [Compound I-200] | > 52000

SMILES | Ki [1] [nM] | IC50 [2] [nM]
Cn1ncc(Br)c1-c1cc(Nc2ncc(C(F)(F)F)cc2F)ccc1OCCO [Compound I-006] | 0.271 | > 52000
